Test results published in US12527788B2, “Defining RNA-small molecule affinity landscapes enables design of a small molecule inhibitor of an oncogenic non-coding RNA” (University of Florida Research Foundation, Incorporated, priority 2017, dated 2026).

Columns and labels:
selected RNA motifs = assay: In solution fluorescence-based binding affinity measurement; conditions: read-out: Average Kd of Selected RNA Binders
Protocol: Bound RNA motifs for each compound were harvested from the array surface, amplified, and identified by using high throughput sequencing (RNA-seq). Highly abundant RNAs in the sequencing data were then subjected to binding measurements. Typically, those RNAs that were highly enriched bound to the small molecules with affinities (Kds) that ranged from 1 to 10 μM (FIG. 2 and Table 1) while binding to the starting libraries was not saturable. These affinities are promising for binding RNA, as it has been difficult to acquire low micromolar affinity with compounds of this low molecular weight. In fact, RNAs that have undergone Darwinian evolution to bind small molecules, namely riboswitches, often bind their cognate ligand at […] concentrations;^30-33 bioactive compounds that mimic riboswitch ligands bind with similar affinities.^30,34
(§1) Binding Affinity Measurements: An in solution, fluorescence-based assay was used to determine binding affinities by monitoring the change in fluorescence intensity of 1-FL (or 2-FL/3-FL/4-FL) as a function of RNA concentration as described previously.^18 Briefly, the RNA of interest was folded in 1× Folding Buffer (8 mM Na2HPO4, pH 7.0, 185 mM NaCl and 1 mM EDTA) by heating at 60° C. for 5 min followed by slowly cooling to room temperature on the bench top. Then, the FL-conjugated compound was added into the RNA solution to a final concentration of 100 nM. Serial dilutions were then completed using 1× Folding Buffer supplemented with 100 nM FL-conjugated compound. The solutions were incubated at room temperature for 30 min and then transferred to a well of a black 384-well plate. Fluorescence intensity was measured using a Bio-Tek FL×800 plate reader with an excitation wavelength of 485/20 nm and an emission wavelength of 528/20 nm. The change in fluorescence intensity as a function of the concentration of RNA was fit to equation 3:^9 I=I0+0.5 Δε{([FL]0+[RNA]0 +Kd)−(([FL]0+[RNA]0+Kd)^2−4[FL]0[RNA]0)^1/2} (3) where I is the observed fluorescence intensity; I0 is the fluorescence intensity in the absence of RNA; Δε is the difference between the fluorescence intensity in the absence of RNA and in the presence of infinite RNA concentration; [FL]0 is the concentration of compound; [RNA]0 is the concentration of the selected RNA; and Kd is the dissociation constant.

AT-rich DNA hairpin = assay: as above
Text: It has been difficult to identify compounds that are heterocyclic in nature that selectively recognize RNA over DNA.^5 Thus, to further gain insight into the selectivity of our RNA motif-small molecule interactions, we compared the measured affinities for selected RNA motifs to the affinities of the ligands for an AT-rich DNA hairpin, a common target of small molecules similar to those shown in FIG. 1. […] This alteration reduces DNA affinity because key stacking and hydrogen bonding interactions are not possible. […] Thus, the interactions selected via 2DCS are RNA-selective.
as §1

Kd (selected RNA motifs) [µM]	Kd (AT-rich DNA hairpin) [µM]	SMILES
16 ± 9	> 100	CN1CCN(c2ccc(-c3ccc4nc(-c5ccc(OCCCC(=O)NCCCN=[N+]=[N-])cc5)[nH]c4c3)cc2)CC1 [Compound 1]
7 ± 5	> 100	Cc1cc(-c2nc3ccc(-c4ccc(N5CCN(C)CC5)cc4)cc3[nH]2)cc(C)c1OCCCC(=O)NCCCN=[N+]=[N-] [Compound 2]
8 ± 4	> 100	CC(C)c1cc(-c2nc3ccc(-c4ccc(N5CCN(C)CC5)cc4)cc3[nH]2)cc(C(C)C)c1OCCCC(=O)NCCCN=[N+]=[N-] [Compound 3]
